ChEMBL document CHEMBL1201862, “PubChem BioAssay data set” (2004)
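Each compound was tested at five concentrations against cells in 96-well plates for 48 hours. GI50 is the concentration that inhibits growth by half.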 Active and inactive are the calls of the source. Cut-off read from the data, not from the text of the source: active = GI50 up to about 1.1 µM and inactive = higher.

Legend:
Experiment in all cases: growth of human tumour cells (NCI), 48 h
MDA-MB-435 = system: MDA-MB-435
UACC-62 = system: UACC-62
MDA-N = system: MDA-N
A498 = system: A498
MCF7 = system: MCF7
SK-MEL-2 = system: SK-MEL-2
KM12 = system: KM12
NCI-H23 = system: NCI-H23
A549 = system: A549
SN12C = system: SN12C
RPMI-8226 = system: RPMI-8226
ACHN = system: ACHN
NCI/ADR-RES = system: NCI/ADR-RES
SF-268 = system: SF-268
NCI-H522 = system: NCI-H522
PC-3 = system: PC-3
HT-29 = system: HT-29
SF-295 = system: SF-295
NCI-H460 = system: NCI-H460
HL-60 = system: HL-60
CCRF-CEM = system: CCRF-CEM
M14 = system: M14
SK-MEL-5 = system: SK-MEL-5
RXF 393 = system: RXF 393
SW-620 = system: SW-620
OVCAR-5 = system: OVCAR-5
IGROV-1 = system: IGROV-1
HCT-116 = system: HCT-116
EKVX = system: EKVX
TK-10 = system: TK-10
COLO 205 = system: COLO 205
SK-OV-3 = system: SK-OV-3
T47D = system: T47D
NCI-H226 = system: NCI-H226
MOLT-4 = system: MOLT-4
786-0 = system: 786-0
BT-549 = system: BT-549
LOX IMVI = system: LOX IMVI
UACC-257 = system: UACC-257
HOP-92 = system: HOP-92
HCT-15 = system: HCT-15
SNB-19 = system: SNB-19
Malme-3M = system: Malme-3M
CAKI-1 = system: CAKI-1
U-251 = system: U-251
OVCAR-4 = system: OVCAR-4
K562 = system: K562
HCC 2998 = system: HCC 2998
SK-MEL-28 = system: SK-MEL-28
DU-145 = system: DU-145
Hs-578T = system: Hs-578T
UO-31 = system: UO-31
SR = system: SR
HOP-62 = system: HOP-62
MDA-MB-231 = system: MDA-MB-231
SF-539 = system: SF-539
OVCAR-8 = system: OVCAR-8
OVCAR-3 = system: OVCAR-3
SNB-75 = system: SNB-75

Measured: GI50

Cc1ccccc1/N=N/c1ccc(N/N=C2/CCCNC2=O)c(C)c1
inactive: MDA-MB-435 > 100 µM | UACC-62 > 100 µM | MDA-N > 100 µM | A498 > 100 µM | MCF7 64.1 µM | SK-MEL-2 > 100 µM | KM12 > 100 µM | NCI-H23 > 100 µM | A549 68.1 µM | SN12C > 100 µM | RPMI-8226 > 100 µM | ACHN > 100 µM | NCI/ADR-RES > 100 µM | SF-268 > 100 µM | NCI-H522 31.2 µM | PC-3 > 100 µM | HT-29 > 100 µM | SF-295 > 100 µM | NCI-H460 > 100 µM | HL-60 8.55 µM | CCRF-CEM 9.46 µM | M14 > 100 µM | SK-MEL-5 45.2 µM | RXF 393 > 100 µM | SW-620 > 100 µM | OVCAR-5 > 100 µM | IGROV-1 > 100 µM | HCT-116 > 100 µM | EKVX 88.5 µM | TK-10 > 100 µM | COLO 205 > 100 µM | SK-OV-3 > 100 µM | T47D 33 µM | NCI-H226 > 100 µM | MOLT-4 34.6 µM | 786-0 > 100 µM | BT-549 > 100 µM | LOX IMVI > 100 µM | UACC-257 > 100 µM | HOP-92 > 100 µM | SNB-19 > 100 µM | Malme-3M > 100 µM | CAKI-1 > 100 µM | U-251 > 100 µM | OVCAR-4 66.8 µM | K562 > 100 µM | HCC 2998 > 100 µM | SK-MEL-28 > 100 µM | DU-145 > 100 µM | Hs-578T > 100 µM | UO-31 39.5 µM | SR 36.1 µM | HOP-62 > 100 µM | MDA-MB-231 > 100 µM
> 100 µM: HCT-15

CO/N=C(\C(=O)Nc1cncs1)c1csc(N)n1
inactive: MDA-MB-435 > 10 µM | UACC-62 > 10 µM | MDA-N > 10 µM | A498 > 10 µM | MCF7 > 10 µM | KM12 > 10 µM | NCI-H23 > 10 µM | A549 > 10 µM | SN12C > 10 µM | RPMI-8226 6.27 µM | ACHN > 10 µM | NCI/ADR-RES > 10 µM | SF-268 > 10 µM | NCI-H522 > 10 µM | PC-3 > 10 µM | HT-29 > 10 µM | SF-295 > 10 µM | NCI-H460 > 10 µM | CCRF-CEM > 10 µM | M14 > 10 µM | SF-539 > 10 µM | SK-MEL-5 > 10 µM | OVCAR-8 > 10 µM | SW-620 > 10 µM | OVCAR-5 > 10 µM | IGROV-1 > 10 µM | HCT-116 > 10 µM | EKVX > 10 µM | TK-10 > 10 µM | COLO 205 > 10 µM | SK-OV-3 > 10 µM | T47D > 10 µM | MOLT-4 > 10 µM | 786-0 > 10 µM | BT-549 > 10 µM | LOX IMVI > 10 µM | UACC-257 > 10 µM | HOP-92 > 10 µM | SNB-19 > 10 µM | Malme-3M > 10 µM | CAKI-1 > 10 µM | OVCAR-3 > 10 µM | U-251 > 10 µM | OVCAR-4 > 10 µM | K562 > 10 µM | HCC 2998 > 10 µM | SK-MEL-28 > 10 µM | DU-145 > 10 µM | Hs-578T > 10 µM | UO-31 > 10 µM | SNB-75 > 10 µM | SR > 10 µM | HOP-62 > 10 µM | MDA-MB-231 > 10 µM
> 10 µM: HCT-15
